Test results as given in PubChem BioAssay AID256 (DTP/NCI, 2004).
Several values for one entry are separate records, joined by “and”; a condition that tells them apart may be missing. Identical values can stand only once. Toxic doses and inconclusive results are not listed.

Test system: CD2F1 mice, L1210 leukemia ip, survival T/C
Experiment: NCI In Vivo Anticancer Drug Screen. Data for tumor model L1210 Leukemia (intraperitoneal) in CD2F1 (CDF1) mice
Conditions: higher = longer survival
Method in brief: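 Each value reflects a quotient of treated over vehicle control outcomes in mice with a transplanted tumor.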

[1] = endpoint: mean survival time, dose: 50.0 mg/kg/injection, schedule: Q01DX009 (ip), vehicle: saline with Tween-80
[2] = endpoint: mean survival time, dose: 100.0 mg/kg/injection, schedule: Q01DX009 (ip), vehicle: saline with Tween-80
[3] = endpoint: mean survival time, dose: 200.0 mg/kg/injection, schedule: Q01DX009 (ip), vehicle: saline with Tween-80
[4] = endpoint: mean survival time, dose: 100.0 mg/kg/injection, schedule: Q04DX003 (ip), vehicle: saline with Tween-80
[5] = endpoint: mean survival time, dose: 200.0 mg/kg/injection, schedule: Q04DX003 (ip), vehicle: saline with Tween-80
[6] = endpoint: mean survival time, dose: 400.0 mg/kg/injection, schedule: Q04DX003 (ip), vehicle: saline with Tween-80
[7] = endpoint: mean survival time, dose: 75.0 mg/kg/injection, schedule: Q01DX001 (ip), vehicle: saline
[8] = endpoint: mean survival time, dose: 100.0 mg/kg/injection, schedule: Q01DX001 (ip), vehicle: saline with Tween-80
[9] = endpoint: mean survival time, dose: 200.0 mg/kg/injection, schedule: Q01DX001 (ip), vehicle: saline with Tween-80
[10] = endpoint: mean survival time, dose: 400.0 mg/kg/injection, schedule: Q01DX001 (ip), vehicle: saline with Tween-80
[11] = endpoint: median survival time, dose: 25.0 mg/kg/injection, schedule: Q01DX009 (ip), vehicle: saline with Tween-80
[12] = endpoint: median survival time, dose: 50.0 mg/kg/injection, schedule: Q01DX009 (ip), vehicle: saline with Tween-80
[13] = endpoint: median survival time, dose: 100.0 mg/kg/injection, schedule: Q01DX009 (ip), vehicle: saline with Tween-80
[14] = endpoint: median survival time, dose: 200.0 mg/kg/injection, schedule: Q01DX009 (ip), vehicle: saline with Tween-80
[15] = endpoint: mean survival time, dose: 400.0 mg/kg/injection, schedule: Q01DX009 (ip), vehicle: saline with Tween-80
[16] = endpoint: mean survival time, dose: 25.0 mg/kg/injection, schedule: Q04DX002 (ip), vehicle: saline with Tween-80
[17] = endpoint: mean survival time, dose: 50.0 mg/kg/injection, schedule: Q04DX002 (ip), vehicle: saline with Tween-80
[18] = endpoint: mean survival time, dose: 100.0 mg/kg/injection, schedule: Q04DX002 (ip), vehicle: saline with Tween-80
[19] = endpoint: mean survival time, dose: 25.0 mg/kg/injection, schedule: Q01DX009 (ip), vehicle: saline with Tween-80

With `Nc1ccn([C@@H]2C=C(CO)[C@@H](O)[C@H]2O)c(=O)n1` the T/C (endpoint: median survival time, dose: 0.44 mg/kg/injection, schedule: Q01DX009 (ip), vehicle: saline) was 162 % of control and 168 % of control, the T/C (endpoint: median survival time, dose: 0.45 mg/kg/injection, schedule: Q01DX009 (ip), vehicle: saline) was 153 % of control and the T/C (endpoint: median survival time, dose: 0.67 mg/kg/injection, schedule: Q01DX009 (ip), vehicle: saline) was 180 % of control (2×) and 191 % of control. For the same compound, the T/C (endpoint: median survival time, dose: 0.67 mg/kg/injection, schedule: Q01DX009 (oral), vehicle: saline) was 101 % of control, the T/C (endpoint: median survival time, dose: 1.5 mg/kg/injection, schedule: Q01DX009 (oral), vehicle: saline) was 155 % of control and 205 % of control and the T/C (endpoint: median survival time, dose: 2.0 mg/kg/injection, schedule: Q04DX003 (ip), vehicle: saline) was 171 % of control. The T/C (endpoint: median survival time, dose: 2.25 mg/kg/injection, schedule: Q01DX009 (ip), vehicle: saline) was 117 % of control and 246 % of control, the T/C (endpoint: median survival time, dose: 2.25 mg/kg/injection, schedule: Q01DX009 (oral), vehicle: saline) was 157 % of control and 225 % of control and the T/C (endpoint: median survival time, dose: 4.0 mg/kg/injection, schedule: Q01DX009 (ip), vehicle: saline) was 93 % of control. The T/C (endpoint: median survival time, dose: 4.0 mg/kg/injection, schedule: Q04DX003 (ip), vehicle: saline) was 191 % of control, the T/C (endpoint: median survival time, dose: 5.05 mg/kg/injection, schedule: Q01DX009 (oral), vehicle: saline) was 123 % of control and 104 % of control and the T/C (endpoint: median survival time, dose: 8.0 mg/kg/injection, schedule: Q04DX003 (ip), vehicle: saline) was 183 % of control. The T/C (endpoint: median survival time, dose: 250.0 micrograms/kg/injection, schedule: Q03HX024 (ip), vehicle: saline) was 187 % of control, the T/C (endpoint: median survival time, dose: 500.0 micrograms/kg/injection, schedule: Q03HX024 (ip), vehicle: saline) was 216 % of control and the T/C (endpoint: median survival time, dose: 2000.0 micrograms/kg/injection, schedule: Q03HX024 (ip), vehicle: saline) was 96 % of control.
For `CC(=O)n1c2ccccc2c2ccccc21`, the T/C [1] was 106 % of control, the T/C [2] was 109 % of control and the T/C [3] was 106 % of control.
With `Cc1ccc(C(=O)CCl)c(C)c1` the T/C (endpoint: mean survival time, dose: 25.0 mg/kg/injection, schedule: Q04DX003 (ip), vehicle: Klucel (hydroxypropylcellulose) (HPC)) was 102 % of control and the T/C (endpoint: mean survival time, dose: 50.0 mg/kg/injection, schedule: Q04DX003 (ip), vehicle: Klucel (hydroxypropylcellulose) (HPC)) was 103 % of control.
In the case of `O=C1NCC2(CCN(Cc3ccccc3)CC2)N1c1ccccc1`, the T/C [4] is reported as 93 % of control, the T/C [5] is reported as 89 % of control and the T/C [6] is reported as 89 % of control.
In the case of `O=C(O)c1[nH]c2c([N+](=O)[O-])cc([N+](=O)[O-])cc2c1C(=O)O`, the T/C [7] is reported as 103 % of control and the T/C (endpoint: mean survival time, dose: 150.0 mg/kg/injection, schedule: Q01DX001 (ip), vehicle: saline) is reported as 97 % of control.
For `C1CCCCCC2=C(CCCC1)CCCO2`, the T/C (endpoint: mean survival time, dose: 6.25 mg/kg/injection, schedule: Q04DX003 (ip), vehicle: saline with Tween-80) was 91 % of control, the T/C (endpoint: mean survival time, dose: 12.5 mg/kg/injection, schedule: Q04DX003 (ip), vehicle: saline with Tween-80) was 91 % of control and the T/C (endpoint: mean survival time, dose: 25.0 mg/kg/injection, schedule: Q04DX003 (ip), vehicle: saline with Tween-80) was 86 % of control. For the same compound, the T/C (endpoint: mean survival time, dose: 50.0 mg/kg/injection, schedule: Q04DX003 (ip), vehicle: saline with Tween-80) was 89 % of control, the T/C [4] was 94 % of control and the T/C [5] was 94 % of control.
For `O=C(O)Cc1cc(=O)oc2ccccc12`, the T/C [8] was 104 % of control, the T/C [9] was 104 % of control and the T/C [10] was 96 % of control.
`O=C1c2ccccc2C(C2c3ccccc3C(=O)c3ccccc32)c2ccccc21` was tested, and the T/C [4] was 110 % of control, the T/C [5] was 96 % of control and the T/C [6] was 100 % of control.
For `c1ccc(P(CCNCCP(c2ccccc2)c2ccccc2)c2ccccc2)cc1`, the T/C [11] was 101 % of control, the T/C [12] was 103 % of control and the T/C [13] was 103 % of control. For the same compound, the T/C [14] was 101 % of control.
`CN1CCC(O)(O)C(Br)C1` (stereo not drawn) was tested, and the T/C (endpoint: mean survival time, dose: 18.8 mg/kg/injection, schedule: Q01DX009 (ip), vehicle: saline) was 98 % of control, the T/C (endpoint: mean survival time, dose: 18.8 mg/kg/injection, schedule: Q04DX003 (ip), vehicle: saline) was 102 % of control and the T/C (endpoint: mean survival time, dose: 37.5 mg/kg/injection, schedule: Q01DX009 (ip), vehicle: saline) was 100 % of control. The T/C (endpoint: mean survival time, dose: 37.5 mg/kg/injection, schedule: Q04DX003 (ip), vehicle: saline) was 106 % of control, the T/C [7] was 102 % of control and the T/C (endpoint: mean survival time, dose: 75.0 mg/kg/injection, schedule: Q01DX009 (ip), vehicle: saline) was 88 % of control. For the same compound, the T/C (endpoint: mean survival time, dose: 75.0 mg/kg/injection, schedule: Q04DX003 (ip), vehicle: saline) was 100 % of control.
In the case of `CC(C)OC(=O)C(NC=O)C(C)(C)S` (stereo not drawn), the T/C [2] is reported as 100 % of control, the T/C [3] is reported as 96 % of control and the T/C [15] is reported as 95 % of control.
With `O=C1OC(CBr)CC1(c1ccccc1)c1ccccc1` (stereo not drawn) the T/C [8] was 95 % of control, the T/C [2] was 102 % of control and the T/C [9] was 100 % of control. The T/C [3] was 100 % of control, the T/C [10] was 100 % of control and the T/C [15] was 102 % of control.
For `CC1CC(C)(C)N=C(CCNCc2ccccc2)O1` (stereo not drawn), the T/C (endpoint: mean survival time, dose: 6.25 mg/kg/injection, schedule: Q01DX001 (ip), vehicle: saline) was 95 % of control, the T/C (endpoint: mean survival time, dose: 12.5 mg/kg/injection, schedule: Q01DX001 (ip), vehicle: saline) was 110 % of control and the T/C (endpoint: mean survival time, dose: 25.0 mg/kg/injection, schedule: Q01DX001 (ip), vehicle: saline) was 103 % of control.
`CC(C)C(C)c1ccccc1` (stereo not drawn) was tested, and the T/C (endpoint: mean survival time, dose: 100.0 mg/kg/injection, schedule: Q01DX001 (ip), vehicle: saline) was 100 % of control, the T/C (endpoint: mean survival time, dose: 200.0 mg/kg/injection, schedule: Q01DX001 (ip), vehicle: saline) was 100 % of control and the T/C (endpoint: mean survival time, dose: 400.0 mg/kg/injection, schedule: Q01DX001 (ip), vehicle: saline) was 98 % of control.
For `COC1OC(CCl)C(Cl)C(Cl)C1O` (stereo not drawn), the T/C [8] was 102 % of control, the T/C [9] was 96 % of control and the T/C [10] was 102 % of control.
For `O=C1c2ccccc2C(c2ccc(Br)cc2)C1Br` (stereo not drawn), the T/C [4] was 97 % of control, the T/C [5] was 90 % of control and the T/C [6] was 100 % of control.
With `C=C(CCCCCCCCCCCCCCCC)C(=O)O` the T/C [16] was 90 % of control, the T/C [17] was 87 % of control and the T/C [18] was 94 % of control.
With `O=C(O)CNCP(=O)(O)O` the T/C [2] was 95 % of control, the T/C [4] was 105 % of control and the T/C [3] was 93 % of control. For the same compound, the T/C [5] was 102 % of control, the T/C [15] was 89 % of control and the T/C [6] was 100 % of control.
For `O=C1SC(c2ccccc2)=S=C1c1ccccc1`, the T/C [11] was 100 % of control, the T/C [12] was 105 % of control and the T/C [13] was 103 % of control. The T/C [14] was 97 % of control and the T/C (endpoint: median survival time, dose: 400.0 mg/kg/injection, schedule: Q01DX009 (ip), vehicle: saline with Tween-80) was 101 % of control.
`CCc1ccccc1NC(=O)/C=C/C(=O)O` was tested, and the T/C [2] was 102 % of control, the T/C [4] was 98 % of control and the T/C [3] was 100 % of control. The T/C [15] was 102 % of control and the T/C [6] was 92 % of control.
`COc1cc2ccnc(/C=N\NC(N)=S)c2cc1OC` was tested, and the T/C [19] was 93 % of control, the T/C [1] was 96 % of control and the T/C [2] was 96 % of control. For the same compound, the T/C [3] was 95 % of control.
With `COc1ccc(CCNC(=S)NN)cc1OC` the T/C [16] was 106 % of control, the T/C [17] was 95 % of control and the T/C [18] was 114 % of control. For the same compound, the T/C (endpoint: mean survival time, dose: 200.0 mg/kg/injection, schedule: Q04DX002 (ip), vehicle: saline with Tween-80) was 103 % of control.
`CC(C)(C)/C(=N\Nc1ccc([N+](=O)[O-])cc1[N+](=O)[O-])c1ccccc1` was tested, and the T/C (endpoint: mean survival time, dose: 25.0 mg/kg/injection, schedule: Q01DX001 (ip), vehicle: saline with Tween-80) was 97 % of control, the T/C (endpoint: mean survival time, dose: 50.0 mg/kg/injection, schedule: Q01DX001 (ip), vehicle: saline with Tween-80) was 95 % of control and the T/C [8] was 97 % of control.
In the case of `NCc1cc(O)c(O)c(O)c1`, the T/C (endpoint: median survival time, dose: 37.5 mg/kg/injection, schedule: Q01DX005 (ip), vehicle: saline) is reported as 114 % of control, the T/C (endpoint: median survival time, dose: 150.0 mg/kg/injection, schedule: Q01DX005 (ip), vehicle: saline) is reported as 153 % of control and the T/C (endpoint: median survival time, dose: 300.0 mg/kg/injection, schedule: Q01DX005 (ip), vehicle: saline) is reported as 156 % of control and 160 % of control.
For `CCCCCCOC(CN(C)C)C(Cl)(Cl)Cl` (stereo not drawn), the T/C (endpoint: mean survival time, dose: 12.5 mg/kg/injection, schedule: Q01DX009 (ip), vehicle: saline with Tween-80) was 96 % of control and 103 % of control, the T/C [19] was 96 % of control and 100 % of control and the T/C [1] was 97 % of control and 100 % of control. For the same compound, the T/C [2] was 96 % of control and 101 % of control, the T/C [3] was 102 % of control and 105 % of control and the T/C [15] was 105 % of control.
